Measured values taken from article PMC9607266, “Drug–Drug Interaction Study to Evaluate the Pharmacokinetics, Safety, and Tolerability of Ipatasertib in Combination with Darolutamide in Patients with Advanced Prostate Cancer” (Pharmaceutics, 2022).
Where two headings read alike, the source gives them in different places.

Key:
[1] = Phase Ib DDI study: plasma PK of darolutamide and keto-darolutamide at steady state in combination with ipatasertib; details: human
Experimental: This was an open-label, multicenter, Phase Ib study designed to assess the safety, tolerability, and the drug–drug interaction of the combined administration of 400 mg QD oral ipatasertib and 600 mg BID oral darolutamide. […] For this study, no prospective calculations of the statistical power were made; the sample size selected was based on a typical sample size used for DDI studies. […] Figure 1 presents an overview of the study design.
Plasma concentrations of ipatasertib and its metabolite M1 were determined using a previously reported, validated liquid chromatography–tandem mass spectrometry assay (LC-MS/MS). The lower and upper limit of the quantitation for ipatasertib and M1 was 0.500 ng/mL and 400 ng/mL, respectively. Stable labeled internal standards were used for both analytes. Plasma concentrations of darolutamide and keto-darolutamide were determined by a validated bioanalytical assay using supported liquid extraction and LC-MS/MS detection by Labcorp Early Drug Development Laboratories Inc. (Madison, WI, USA). […] The diastereomers of darolutamide, (S, R)-darolutamide, and (S, S)-darolutamide, were quantified as one entity from a single chromatographic peak. The MS/MS transitions monitored for detection were m/z 399.2 to 178.1 for darolutamide, m/z 397.1 to 136.0 for keto-darolutamide, and 478.2 to 221.0 for the internal standard apalutamide. […]

CYP3A4 [2] = details: cited from earlier work
[3] = cited from earlier work
[4] = cited from earlier work; remark: listed apart in the source
[5] = compared with enzalutamide and apalutamide; cited from earlier work
[6] = Phase Ib DDI study: safety and tolerability (adverse events, ECG); assay type: in vivo, human
Description: (§1) Figure 1 presents an overview of the study design.
The primary objectives of the study were to characterize the effect of darolutamide on the PK of ipatasertib and its M1 (G-037720) metabolite when administered alone versus in combination with darolutamide and to evaluate the safety and tolerability of the ipatasertib–darolutamide combination. The PK endpoints of the study were to evaluate the plasma PK parameters of ipatasertib and its M1 metabolite and evaluate the PK of darolutamide and its metabolite keto-darolutamide at a steady state of the combination treatment and compare this to historical data. Medications known to impact the PK of ipatasertib or darolutamide (both CY3PA4 substrates) were refrained from being administered during the study conducted and accordingly not co-administered. The safety endpoints of the study were to evaluate the incidences, nature, and severity of AEs and laboratory abnormalities, changes in vital signs, exposure to the study treatment, and to evaluate the changes in ECG parameters with particular focus on the QT interval corrected through the use of Fridericia’s formula (QTcF). The study achieved the first patient first visit on 21 December 2020, and the cut-off date for primary PK and safety analysis presented within this manuscript was 31 August 2021.
The safety and tolerability assessments consisted of monitoring and recording AEs, including SAEs and AEs of special interest, clinical laboratory assessments, vital signs, a 12 lead ECG, and physical examination. The AEs were recorded from the first admission until the discontinuation of visits. The AE severity was graded from Grade 1 to Grade 5 as per the National Cancer Institute Common Terminology Criteria for Adverse Events version 5.0. The relationship between the AEs and the study drug was indicated as related or not related. The AE terms reported were coded using the standard Medical Dictionary for Regulatory Activities version 24.0’s preferred terms. In order to manage any drug-related toxicities, ipatasertib and darolutamide modifications were specified as follows: An ipatasertib dose could be reduced in decrements of 100 mg up to 200 mg (can be reduced to two dose levels) beyond which the patient must discontinue ipatasertib but may continue treatment with darolutamide. In the case of darolutamide, the dose could be reduced from 600 mg BID to 300 mg BID until symptoms improve. Treatment may then be resumed at a dose of 600 mg, twice daily. A dose reduction below 300 mg BID for darolutamide was not recommended.

CYP3A4 [7] = test system: CYP3A4; parameters: method as in PMID 35428895; details: PBPK simulations, ipatasertib 400 mg QD; cited from earlier work
[8] = Phase Ib DDI study: plasma PK of ipatasertib and M1 after ipatasertib 400 mg QD alone and with darolutamide 600 mg BID; assay type: in vivo; details: male, human, oral
Experimental: as §1
Stable labeled internal standards were used for both analytes.
Only median, min, and max were evaluated for Tmax.
Pharmacokinetic parameters (area under the curve (AUC0–tau) and Cmax,ss) were compared between Day 10 of Cycle 1 (ipatasertib alone, as the reference treatment) and Day 28 of Cycle 1 (combination of ipatasertib and darolutamide, as the test treatment) using SAS Version 9.4 by calculating geometric mean ratios and corresponding 90% confidence intervals (CIs) to evaluate the effect of darolutamide on the PK of ipatasertib and M1. A linear mixed model with a fixed effect for treatment and a random effect for patients was used on the natural log-transformed pharmacokinetic parameters. Point estimates for the means and point estimates and corresponding 90% confidence intervals (CIs) for the differences in means between the two treatments (reference and test treatments) were obtained from the linear mixed effects model and then exponentiated to obtain geometric means, geometric mean ratios, and respective 90% CIs on the original scale.

CYP3A4 [9] = details: in vitro studies; cited from earlier work
[10] = parameters: method as in PMID 27872130; details: cited from earlier work
[11] = cited from earlier work; remark: listed apart in the source
[12] = single-agent darolutamide from the literature, geometric mean (%CV)
[13] = itraconazole, strong CYP3A4 and P-gp inhibitor, 100 mg ipatasertib

CC(O)c1cc(C(=O)N[C@@H](C)Cn2ccc(-c3ccc(C#N)c(Cl)c3)n2)[nH]n1 (stereo partly drawn) [Darolutamide]
Tmax ([1]; male, plasma, oral): 4.23 h
reduction of midazolam exposures (CYP3A4 [2]; concomitant administration of darolutamide and midazolam): ~ 29%
increase in AUC0–∞ when combined with itraconazole ([3]; darolutamide with itraconazole): 1.7 fold
increase in Cmax when combined with itraconazole ([3]; darolutamide with itraconazole): 1.4 fold
time to steady state ([4]; 600 mg BID): 2 to 5 days
increase in bioavailability when administered with food [4]: 2.0- to 2.5 fold
effective t1/2 ([4]; in patients): approximately 20 h
time at which Cmax is reached ([4]; single 600 mg oral dose): approximately 4 h
AUC0–t,ss [4, 12]: 52.82 (33.9) h·µg/mL
Cmax,ss [4, 12]: 4.79 (30.9) µg/mL
AUC0–12 h,ss ([4]; single-agent darolutamide): 52820 ng·h/mL
penetration of the blood–brain barrier [5]: lower penetration of the blood–brain barrier

CC(C)NC[C@@H](C(=O)N1CCN(c2ncnc3c2[C@H](C)C[C@H]3O)CC1)c1ccc(Cl)cc1 [Ipatasertib]
Total number of deaths ([6]; N = 14): 0
patients with at least one AE leading to discontinuation of darolutamide ([6]; male, human, in vivo): 0 n (%)
patients with at least one AE leading to discontinuation of ipatasertib ([6]; male, human, in vivo): 0 n (%)
patients with at least one AE leading to dose interruption of darolutamide ([6]; male, human, in vivo): 0 n (%)
patients with at least one AE leading to dose interruption of ipatasertib ([6]; male, human, in vivo): 0 n (%)
patients with at least one AE leading to dose reduction of darolutamide ([6]; male, human, in vivo): 0 n (%)
patients with at least one AE leading to dose reduction of ipatasertib ([6]; male, human, in vivo): 0 n (%)
patients with at least one AE related to any treatment ([6]; male, human, in vivo): 1 (7.1) n (%)
patients with at least one AE related to darolutamide only ([6]; male, human, in vivo): 0 n (%)
patients with at least one AE related to ipatasertib only ([6]; male, human, in vivo): 1 (7.1) n (%)
patients with at least one Grade 5 AE ([6]; male, human, in vivo): 0 n (%)
patients with at least one Grade ≥ 3 AE ([6]; male, human, in vivo): 0 n (%)
patients with at least one Serious AE ([6]; male, human, in vivo): 0 n (%)
patients with at least one: Any treatment discontinuation ([6]; male, human, in vivo): 0 n (%)
patients with diarrhea of Grade 1 ([6]; male, human, in vivo): 7.1%
increase in midazolam AUC0–∞ exposures (CYP3A4 [2]; ipatasertib at 600 mg QD): 2.22 fold
expected increase in midazolam exposure (AUC0–∞) (CYP3A4 [7]): approximately 1.69 fold
AUC ([8]; 400 mg, Reference = ipatasertib only, n = 13, linear mixed model, read-out: AUC0–tau,ss, Reference Geometric Mean): 2610 ng·h/mL
Cmax ([8]; 400 mg, Reference = ipatasertib only, n = 13, linear mixed model, read-out: Cmax,ss, Reference Geometric Mean): 452 ng/mL
Cmax ([8]; 400 mg, ipatasertib 400 mg QD alone, Cycle 1 Day 10, n = 14, geometric mean (%CV), read-out: Cmax,ss): 462 ng/mL
AUC ([8]; 400 mg, ipatasertib 400 mg QD alone, Cycle 1 Day 10, n = 14, geometric mean (%CV), tau = 24 h, mCRPC patients, read-out: AUC0–tau,ss): 2660 ng·h/mL
AUC ([8]; Test = ipatasertib with darolutamide, n = 13, linear mixed model, read-out: AUC0–tau,ss, Test Geometric Mean): 2400 ng·h/mL
Cmax ([8]; Test = ipatasertib with darolutamide, n = 13, linear mixed model, read-out: Cmax,ss, Test Geometric Mean): 355 ng/mL
AUC(0-t) ([8]; ipatasertib 400 mg QD alone, Cycle 1 Day 10, n = 14, geometric mean (%CV)): 2670 ng·h/mL
Tmax ([8]; ipatasertib 400 mg QD alone, Cycle 1 Day 10, n = 14, median (min, max)): 1.04 h
AUC(0-t) ([8]; ipatasertib 400 mg QD with darolutamide 600 mg BID, Cycle 1 Day 28, n = 13, geometric mean (%CV)): 2400 ng·h/mL
Cmax ([8]; ipatasertib 400 mg QD with darolutamide 600 mg BID, Cycle 1 Day 28, n = 13, geometric mean (%CV), read-out: Cmax,ss): 355 ng/mL
AUC ([8]; ipatasertib 400 mg QD with darolutamide 600 mg BID, Cycle 1 Day 28, n = 13, geometric mean (%CV), tau = 24 h, read-out: AUC0–tau,ss): 2400 ng·h/mL
Tmax ([8]; ipatasertib 400 mg QD with darolutamide 600 mg BID, Cycle 1 Day 28, n = 13, median (min, max)): 2 h
increase in exposures when combined with abiraterone ([3]; dedicated drug–drug interaction study): approximately 1.5 fold
decrease in ipatasertib exposure when combined with enzalutamide ([3]; enzalutamide, strong CYP3A4 inducer): approximately 50%
increase in AUC0–∞ when combined with itraconazole [3, 13]: 5.45 fold
increase in Cmax when combined with itraconazole [3, 13]: 2.26 fold
CYP3A4 inhibition in vitro (CYP3A4 [9]): time-dependent inhibitor of CYP3A4
human plasma protein binding [10]: low
time to steady-state ([11]; 400 mg QD dose): ≤ 7 days
median time to maximum concentration (Tmax) ([11]; across 25–800 mg doses in patients with cancer): 0.5 to 3 h
exposures following a high-fat meal versus fasted conditions [11]: comparable
median half-life (t1/2) ([11]; oral doses in the range of 200–800 mg, range 27.8–66.9 h): 45.0 h

CC(=O)c1cc(C(=O)N[C@@H](C)Cn2ccc(-c3ccc(C#N)c(Cl)c3)n2)[nH]n1 [Keto-darolutamide, keto-darolutamide]
Tmax,ss ([1]; in vivo): 4.13 (1.00, 8.25) h
AUC0–12 h,ss ([4]; human, in vivo): 82800 ng·h/mL
AUC0–t,ss ([4]; human, in vivo): 82.8 (39.5) h·µg/mL
Cmax,ss ([4]; human, in vivo): 9.4 (35.4) µg/mL
effective t1/2 ([4]; human, in vivo): approximately 20 h

CNC(=O)c1ccc(N2C(=S)N(c3ccc(C#N)c(C(F)(F)F)c3)C(=O)C2(C)C)cc1F [enzalutamide]
reduction of midazolam exposures (CYP3A4 [2]; midazolam in combination with enzalutamide, strong CYP3A4 inducer): approximately 85%
